In US3961075A, “Ether-linked quaternary ammonium compositions” (Colgate-Palmolive Company, priority 1975, dated 1976):

Legend:
Format in all cases: cell-based
C. albicans = experiment: standard test tube serial dilution test, C. albicans; conditions: Candida albicans, broth serial dilution, read-out: Minimum Inhibitory Concentration
Procedure: (§1) The anti-microbial nature of the instant novel compounds was shown by a standard test tube serial dilution test in which an appropriate number of test tubes of broth containing decreasing concentrations of the test agent was innoculated with the test organism. After a suitable period of incubation, the tubes were examined for the presence or absence of growth. The activity of the test agent was the lowest concentration which inhibited the growth of the organism and is expressed as the minimal inhibitory concentration in ug/ml.

Ps. aeruginosa = experiment: standard test tube serial dilution test, Ps. aeruginosa; conditions: Pseudomonas aeruginosa, broth serial dilution, read-out: Minimum Inhibitory Concentration
Procedure: as §1

A. niger = experiment: standard test tube serial dilution test, A. niger; conditions: Aspergillus niger, broth serial dilution, read-out: Minimum Inhibitory Concentration
Procedure: as §1

E. coli = experiment: standard test tube serial dilution test, E. coli; conditions: Escherichia coli, broth serial dilution, read-out: Minimum Inhibitory Concentration
Procedure: as §1

T. mentagrophytes = experiment: standard test tube serial dilution test, T. mentagrophytes; conditions: Trichophyton mentagrophytes, broth serial dilution, read-out: Minimum Inhibitory Concentration
Procedure: as §1

Str. mitis = experiment: standard test tube serial dilution test, Str. mitis; conditions: Streptococcus mitis, broth serial dilution, read-out: Minimum Inhibitory Concentration
Procedure: as §1

P. ovale = experiment: standard test tube serial dilution test, P. ovale; conditions: broth serial dilution, read-out: Minimum Inhibitory Concentration
Procedure: as §1

S. aureus = experiment: standard test tube serial dilution test, S. aureus; conditions: Staphylococcus aureus, broth serial dilution, read-out: Minimum Inhibitory Concentration
Procedure: as §1

Row | Structure (SMILES) | MIC (C. albicans) [µg/mL] | MIC (Ps. aeruginosa) [µg/mL] | MIC (A. niger) [µg/mL] | MIC (E. coli) [µg/mL] | MIC (T. mentagrophytes) [µg/mL] | MIC (Str. mitis) [µg/mL] | MIC (P. ovale) [µg/mL] | MIC (S. aureus) [µg/mL]
1 | CCCCCCCCCCCC[N+](C)(C)CCOC12CC3CC(CC(C3)C1)C2 [C12 H25, 2-(1^1-adamantyloxy)ethyldimethyldodecyl ammonium bromide] | 1.56 | > 25 | 50 | 12.5 | 3.12 | 0.19 | > 50 | 0.39
2 | CCCCCCCCCCCCCC[N+](C)(C)CCOC12CC3CC(CC(C3)C1)C2 [C14 H29, 2(1^1 -adamantyloxy)ethyldimethyltetradecylammonium bromide] | 1.56 | > 25 | 50 | 12.5 | 6.25 | 0.39 | > 50 | 0.78
